# Patent publication US20020002171A1, “Materials and methods for killing nematodes and nematode eggs” (priority 2000, published 2002)
# Test system: Caenorhabditis elegans
# Experiment: C. elegans L1 nematicidal dose response in 96-well plates, 5 day visual score (Example 2; same procedure for Example 7, Table 3)
# Type: in vivo
# Parameters: key to 5 Day Visual Score V1 / 5 Day Visual Score V2 / 5 Day Visual Score V3 / 5 Day Visual Score V4 / 5 Day Visual Score V6 / 5 Day Visual Score V5 / Initial HTS Run Visual Score / Follow-up HTS Run Visual Score: Dead: only stiff L1s (no movement); Dead (L4): worms are dead, but at a later larval stage; majority of worms are L1 (based on size) worms move when plate is tapped; majority of worms are L2 (based on size); majority of worms are L3 (based on size); majority of worms are L4 (based on size); AD: majority of worms are adult; #AD: 5 adult worms or less; B!: sterile (0-25 progeny); B: low broodsize (25-100 progeny); ˜B: moderate broodsize (100-250 progeny); <: reduced broodsize (250-500 progeny); OK: no effect (˜1000+ progeny)
# Conditions: for 5 Day Visual Score V1 / 5 Day Visual Score V3 / 5 Day Visual Score V4 / 5 Day Visual Score V5 / 5 Day Visual Score V6 / 5 Day Visual Score V2: dose response; for 5 Day Visual Score V1: dilution V1, day 5; for 5 Day Visual Score V3: dilution V3, day 5; for 5 Day Visual Score V4: dilution V4, day 5; for 5 Day Visual Score V5: dilution V5, day 5; for 5 Day Visual Score V6: dilution V6, day 5; for 5 Day Visual Score V2: dilution V2, day 5
# Procedure, shortened: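 L1 larvae, 20 per well in NGM with 1% E. coli HB101 and antibiotic/antimycotic, exposed to six 3-fold dilutions from 70 μM down to 0.3 μM (1.4% DMSO at top). Held at 20° C; viability scored visually under 100× dissecting microscope on day 5.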
smiles,measurement,value
Fc1cccc(F)c1CNc1nsc(N2CCN(c3cccc(C(F)(F)F)c3)CC2)n1 [compound 246],Follow-up HTS Run % Run,130%
same,Follow-up HTS Run mOD,209 mOD
same,Initial HTS Run % Run,123%
same,Initial HTS Run Visual Score,L3
same,Initial HTS Run mOD,135 mOD
same,5 Day Visual Score V1,Dead
same,5 Day Visual Score V3,OK (no effect (˜1000+ progeny))
same,5 Day Visual Score V4,OK (no effect (˜1000+ progeny))
same,5 Day Visual Score V5,OK (no effect (˜1000+ progeny))
same,5 Day Visual Score V6,OK (no effect (˜1000+ progeny))
CC1CCN(c2nc(NCc3ccc(C(F)(F)F)cc3)ns2)CC1 [compound 247],Follow-up HTS Run % Run,105%
same,Follow-up HTS Run mOD,169 mOD
same,Initial HTS Run % Run,91%
same,Initial HTS Run mOD,100 mOD
same,5 Day Visual Score V2,˜B (moderate broodsize (100-250 progeny))
same,5 Day Visual Score V3,OK (no effect (˜1000+ progeny))
same,5 Day Visual Score V4,OK (no effect (˜1000+ progeny))
same,5 Day Visual Score V5,OK (no effect (˜1000+ progeny))
same,5 Day Visual Score V6,OK (no effect (˜1000+ progeny))
CC1CC(C)CN(c2nc(NCc3ccc(C(F)(F)F)cc3)ns2)C1 (stereo not drawn) [compound 248],Follow-up HTS Run % Run,112%
same,Follow-up HTS Run Visual Score,L3/L4/AD/B!
same,Follow-up HTS Run mOD,181 mOD
same,Initial HTS Run % Run,99%
same,Initial HTS Run Visual Score,L3/L4/AD/B
same,Initial HTS Run mOD,109 mOD
same,5 Day Visual Score V2,˜B (moderate broodsize (100-250 progeny))
same,5 Day Visual Score V3,< (reduced broodsize (250-500 progeny))
same,5 Day Visual Score V4,OK (no effect (˜1000+ progeny))
same,5 Day Visual Score V5,OK (no effect (˜1000+ progeny))
same,5 Day Visual Score V6,OK (no effect (˜1000+ progeny))
CCN(CC)C(=O)C1CCCN(c2nc(NCc3ccc(C(F)(F)F)cc3)ns2)C1 (stereo not drawn) [compound 249],Follow-up HTS Run % Run,112%
same,Follow-up HTS Run mOD,180 mOD
same,Initial HTS Run % Run,98%
same,Initial HTS Run mOD,108 mOD
same,5 Day Visual Score V2,˜B (moderate broodsize (100-250 progeny))
same,5 Day Visual Score V3,OK (no effect (˜1000+ progeny))
same,5 Day Visual Score V4,OK (no effect (˜1000+ progeny))
same,5 Day Visual Score V5,OK (no effect (˜1000+ progeny))
same,5 Day Visual Score V6,OK (no effect (˜1000+ progeny))
FC(F)(F)c1ccc(CNc2nsc(N3CCN(c4cccc(C(F)(F)F)c4)CC3)n2)cc1 [compound 250],Follow-up HTS Run % Run,125%
same,Follow-up HTS Run mOD,201 mOD
same,Initial HTS Run % Run,108%
same,Initial HTS Run Visual Score,L2 - (Dead L3)
same,Initial HTS Run mOD,119 mOD
same,5 Day Visual Score V1,L3/Dead(L3)
same,5 Day Visual Score V2,L4/#AD/B!
same,5 Day Visual Score V3,B (low broodsize (25-100 progeny))
same,5 Day Visual Score V4,OK (no effect (˜1000+ progeny))
same,5 Day Visual Score V5,OK (no effect (˜1000+ progeny))
same,5 Day Visual Score V6,OK (no effect (˜1000+ progeny))
CC(O)CN(CC(C)O)c1nc(NCc2ccc(C(F)(F)F)cc2)ns1 (stereo not drawn) [compound 252],Follow-up HTS Run % Run,100%
same,Follow-up HTS Run Visual Score,L2 - Dead L3
same,Follow-up HTS Run mOD,161 mOD
same,Initial HTS Run % Run,100%
same,Initial HTS Run Visual Score,Dead(L3)
same,Initial HTS Run mOD,110 mOD
same,5 Day Visual Score V1,Dead(L3)
same,5 Day Visual Score V2,Dead(L3)
same,5 Day Visual Score V4,< (reduced broodsize (250-500 progeny))
same,5 Day Visual Score V5,< (reduced broodsize (250-500 progeny))
same,5 Day Visual Score V6,< (reduced broodsize (250-500 progeny))
OCCN(CCO)c1nc(NCc2ccc(C(F)(F)F)cc2)ns1 [compound 254],Follow-up HTS Run % Run,113%
same,Follow-up HTS Run Visual Score,L2 - Dead L3
same,Follow-up HTS Run mOD,182 mOD
same,Initial HTS Run % Run,105%
same,Initial HTS Run Visual Score,Dead(L3)
same,Initial HTS Run mOD,116 mOD
same,5 Day Visual Score V1,Dead(L3)
same,5 Day Visual Score V3,< (reduced broodsize (250-500 progeny))
same,5 Day Visual Score V4,OK (no effect (˜1000+ progeny))
same,5 Day Visual Score V5,OK (no effect (˜1000+ progeny))
same,5 Day Visual Score V6,OK (no effect (˜1000+ progeny))
OCCN(Cc1ccccc1)c1nc(NCc2ccc(C(F)(F)F)cc2)ns1 [compound 255],Follow-up HTS Run % Run,98%
same,Follow-up HTS Run Visual Score,L1/L2 - Dead L3
same,Follow-up HTS Run mOD,157 mOD
same,Initial HTS Run % Run,94%
same,Initial HTS Run Visual Score,Dead(L3)
same,Initial HTS Run mOD,103 mOD
same,5 Day Visual Score V1,Dead
same,5 Day Visual Score V2,Dead
same,5 Day Visual Score V3,OK (no effect (˜1000+ progeny))
same,5 Day Visual Score V4,OK (no effect (˜1000+ progeny))
same,5 Day Visual Score V5,OK (no effect (˜1000+ progeny))
same,5 Day Visual Score V6,OK (no effect (˜1000+ progeny))
